# Measurements from ChEMBL document CHEMBL2146447, “Synthesis and antimicrobial activity of amido linked pyrrolyl and pyrazolyl-oxazoles, thiazoles and imidazoles” (2011).
# Active and inactive are the calls of the source. No cut-off for these calls is given here.
# Key:
# Assay type in all cases: functional
# [1] = system: Penicillium chrysogenum; experiment: Antifungal activity against Penicillium chrysogenum at 100 ug after 48 hrs by agar well diffusion method; conditions: for zone of inhibition at 100 µg/disc: read-out: DIZ
# [2] = system: Bacillus subtilis; experiment: Antibacterial activity against Bacillus subtilis at 100 ug after 24 hrs by agar well diffusion method; conditions: for zone of inhibition at 100 µg/disc: read-out: DIZ
# [3] = system: Bacillus subtilis; experiment: Antibacterial activity against Bacillus subtilis at 50 ug after 24 hrs by agar well diffusion method; conditions: for zone of inhibition at 50 µg/disc: read-out: DIZ
# [4] = system: Klebsiella pneumoniae; experiment: Antibacterial activity against Klebsiella pneumoniae at 50 ug after 24 hrs by agar well diffusion method; conditions: for zone of inhibition at 50 µg/disc: read-out: DIZ
# [5] = system: Pseudomonas aeruginosa; experiment: Antibacterial activity against Pseudomonas aeruginosa at 50 ug after 24 hrs by agar well diffusion method; conditions: for zone of inhibition at 50 µg/disc: read-out: DIZ
# [6] = system: Pseudomonas aeruginosa; experiment: Antibacterial activity against Pseudomonas aeruginosa at 100 ug after 24 hrs by agar well diffusion method; conditions: for zone of inhibition at 100 µg/disc: read-out: DIZ
# [7] = system: Penicillium chrysogenum; experiment: Antifungal activity against Penicillium chrysogenum at 50 ug after 48 hrs by agar well diffusion method; conditions: for zone of inhibition at 50 µg/disc: read-out: DIZ
# [8] = system: Staphylococcus aureus; experiment: Antibacterial activity against Staphylococcus aureus assessed at 50 ug after 24 hrs by agar well diffusion method; conditions: for zone of inhibition at 50 µg/disc: read-out: DIZ
# [9] = system: Aspergillus niger; experiment: Antifungal activity against Aspergillus niger at 100 ug after 48 hrs by agar well diffusion method; conditions: for zone of inhibition at 100 µg/disc: read-out: DIZ
# [10] = system: Staphylococcus aureus; experiment: Antibacterial activity against Staphylococcus aureus at 100 ug after 24 hrs by agar well diffusion method; conditions: for zone of inhibition at 100 µg/disc: read-out: DIZ
# [11] = system: Klebsiella pneumoniae; experiment: Antibacterial activity against Klebsiella pneumoniae at 100 ug after 24 hrs by agar well diffusion method; conditions: for zone of inhibition at 100 µg/disc: read-out: DIZ
# [12] = system: Aspergillus niger; experiment: Antifungal activity against Aspergillus niger at 50 ug after 48 hrs by agar well diffusion method; conditions: for zone of inhibition at 50 µg/disc: read-out: DIZ
Compound,zone of inhibition at 100 µg/disc [2] [mm],zone of inhibition at 50 µg/disc [3] [mm],zone of inhibition at 50 µg/disc [8] [mm],zone of inhibition at 100 µg/disc [10] [mm],zone of inhibition at 100 µg/disc [1] [mm],zone of inhibition at 50 µg/disc [4] [mm],zone of inhibition at 50 µg/disc [5] [mm],zone of inhibition at 100 µg/disc [6] [mm],zone of inhibition at 50 µg/disc [7] [mm],zone of inhibition at 100 µg/disc [9] [mm],zone of inhibition at 100 µg/disc [11] [mm],zone of inhibition at 50 µg/disc [12] [mm],other results
O=C(Nc1nc(-c2ccccc2)cs1)C1=NNCC1c1ccccc1 (stereo not drawn),16,14,13,15,,,,,,,,,diameter of the inhibition zone (DIZ) [1]: inactive; diameter of the inhibition zone (DIZ) [4]: inactive; diameter of the inhibition zone (DIZ) [5]: inactive; diameter of the inhibition zone (DIZ) [6]: inactive; diameter of the inhibition zone (DIZ) [7]: inactive; diameter of the inhibition zone (DIZ) [9]: inactive; diameter of the inhibition zone (DIZ) [11]: inactive; diameter of the inhibition zone (DIZ) [12]: inactive
O=C(Nc1nc(-c2ccccc2)c[nH]1)c1n[nH]cc1-c1ccccc1,13,10,8,10,12,12,9,11,9,10,14,8,
Cc1ccc(-c2csc(NC(=O)C3=NNCC3c3ccccc3)n2)cc1 (stereo not drawn),18,16,13,15,18,18,12,13,15,16,20,13,
O=C(Nc1nc(-c2ccc(Cl)cc2)c[nH]1)C1=NNCC1c1ccccc1 (stereo not drawn),27,24,25,27,32,28,21,24,29,30,30,28,
Cc1ccc(-c2csc(NC(=O)c3n[nH]cc3-c3ccccc3)n2)cc1,13,10,9,11,13,13,8,11,10,11,15,8,
O=C(Nc1nc(-c2ccc(Cl)cc2)cs1)c1c[nH]cc1-c1ccccc1,29,27,26,27,33,29,23,25,30,31,30,29,
O=C(Nc1nc(-c2ccc(Cl)cc2)co1)c1n[nH]cc1-c1ccccc1,22,21,20,23,29,23,19,21,26,27,24,24,
Cc1ccc(-c2coc(NC(=O)C3=NNCC3c3ccccc3)n2)cc1 (stereo not drawn),,,,,,,,,,,,,diameter of the inhibition zone (DIZ) [1]: inactive; diameter of the inhibition zone (DIZ) [2]: inactive; diameter of the inhibition zone (DIZ) [3]: inactive; diameter of the inhibition zone (DIZ) [4]: inactive; diameter of the inhibition zone (DIZ) [5]: inactive; diameter of the inhibition zone (DIZ) [6]: inactive; diameter of the inhibition zone (DIZ) [7]: inactive; diameter of the inhibition zone (DIZ) [8]: inactive; diameter of the inhibition zone (DIZ) [9]: inactive; diameter of the inhibition zone (DIZ) [10]: inactive; diameter of the inhibition zone (DIZ) [11]: inactive; diameter of the inhibition zone (DIZ) [12]: inactive
Cc1ccc(-c2c[nH]c(NC(=O)C3=NNCC3c3ccccc3)n2)cc1 (stereo not drawn),16,14,11,13,16,16,11,13,13,14,18,11,
